IC50 data for two molecules are collected here from patent US8435987B2, “Pyrazolo-pyridinone and pyrazolo-pyrazinone compounds as P38 modulators and methods of use thereof” (Amgen Inc., priority 2007, dated 2013).

This experiment concerns production of IL-1β, IL-6, and TNF-α by PBMC activated with bacterial lipopolysaccharide (LPS). Kind of experiment: Lipopolysaccharide-activated PBMC cytokine production assay. The following applies: LPS 100 ng/mL, 18 hours. In kind it is cell-based. The protocol:
Lipopolysaccharide-Activated PBMC Cytokine Production Assay
Test compounds were evaluated in vitro for the ability to inhibit the production of IL-1β, IL-6, and TNF-α by PBMC activated with bacterial lipopolysaccharide (LPS). Fresh leukocytes were obtained from a local blood bank, and peripheral blood mononuclear cells (PBMCs) were isolated by density gradient centrifugation on Ficol-Paque Plus (Pharmacia).
Preparation of Test Compound Stock Solutions
All reagents were prepared in RPMI 1640+10% v/v human AB serum+1×Pens/Strep/Glu (assay medium). Test compounds were dissolved in 100% DMSO and serially diluted in 96-well polypropylene round bottom micro titer plates (drug plate). Serial dilutions were then diluted 1:250 into assay medium to a 4× working concentration. […]
LPS was prepared to a 4× concentration in assay medium. […] After 18 hours culture supernatants were removed and IL-1β, IL-6, and TNF-α presence in the supernatants was quantified using MSD ECL based technology.
20 μL of culture supernatant were added to MSD plates, and incubated for one hour at room temperature. 20 μL of detection antibody diluted in antibody diluent (1 μg/mL), and 110 μL of 2× Read Buffer P was added, and incubated for one hour at RT. Electrochemiluminescence was measured using the SECTOR HTS Imager (MSD, Gaithersburg, Md.). […]

For `CNc1noc2c(-c3cc4cnn(-c5c(F)cccc5F)c4n(C)c3=O)c(C)ccc12` [Example 5, 1-(2,6-difluorophenyl)-7-methyl-5-(6-methyl-3-(methylamino)-1,2-benzisoxazol-7-yl)-1,7-dihydro-6H-pyrazolo[3,4-b]pyridin-6-one], the half-inhibitory concentration (IC50) was no more than 100 nM.

Molecule `Cc1ccc2c(NC3CC3)noc2c1-c1cc2cnn(-c3c(F)cccc3F)c2n(C)c1=O` [Example 1, 5-(3-(cyclopropylamino)-6-methylbenzo[d]isoxazol-7-yl)-1-(2,6-difluorophenyl)-7-methyl-1H-pyrazolo[3,4-b]pyridin-6(7H)-one] came in with a half-inhibitory concentration (IC50) of no more than 100 nM.

Usually IC50 stands for the midpoint of a concentration-inhibition curve. The low end stands for greater potency in that assay, the high end for weaker potency in that assay.
